According to patent publication US8859628B2, “Method for preventing, treating and diagnosing disorders of protein aggregation” (priority 2003, dated 2014):
Entries after “also recorded” stand apart in the source; their conditions may differ.

Legend:
TgCRND8 mice [1] = experiment: Cerebral Aβ content (Aβ40 and Aβ42 kits on hemi-brain homogenates); type: in vivo, mouse; set-up: Total Aβ: unit not given here
Procedure: (§1) Plasma and Cerebral Aβ Content—Hemi-brain samples were homogenized in a buffered sucrose solution, followed by either 0.4% diethylamine/100 mM NaCl for soluble Aβ levels or cold formic acid for the isolation of total Aβ. After neutralization the samples were diluted and analyzed for Aβ40 and Aβ42 using commercially available kits (BIOSOURCE International). Each hemisphere was analyzed in triplicate with the mean±SEM reported. Western blot analyses were performed on all fractions using urea gels for Aβ species analyses. Aβ was detected using 6E10 (BIOSOURCE International) and Enhanced Chemiluminenscence (Amersham).
as §1, with “reported.” for “reported. Western blot analyses were performed on all fractions using urea gels for Aβ species analyses. Aβ was detected using 6E10 (BIOSOURCE International) and Enhanced Chemiluminenscence (Amersham).”

TgCRND8 mice [2] = experiment: Gliosis quantitation (GFAP astrocytes, CD68 microglia); type: in vivo, mouse; details: prevention
Text: Gliosis Quantitation—Five randomly selected, evenly spaced, sagittal sections were collected from paraformaldehyde-fixed and frozen hemispheres of treated and control mice. Sections were immunolabelled for astrocytes with anti-rat GFAP IgG2a (Dako; diluted 1:50) and for microglia with anti-rat CD68 IgG2b (Dako; 1:50).
Serial sagittal sections were stained with the astrocytic marker glial fibrillary acidic protein (GFAP) and quantitated for percent brain area covered by astrogliosis.

TgCRND8 mice [3] = experiment: Morris Water Maze, spatial reference memory version, three-day trial paradigm (treatment/reversal study); type: in vivo, mouse; details: three-day paradigm
Procedure: A cohort entered the study at 5 months of age and outcomes were analyzed at 6-months of age. The body weight, coat characteristics and in cage behavior was monitored. All experiments were performed according to the Canadian Council on Animal Care guidelines.
Behavioral Test—Reversal Study—Mice entered the Morris water maze test with a hidden platform on day one without pretraining. Mice were tested for 3 days with six trials per day. On the fourth day, the platform was removed from the pool and each mouse received one 30-s swim probe trial. On the last day the animals underwent a cue test in order to evaluate swimming ability, eye sight and general cognition. The cue test is composed at the platform being placed in a different quadrant than that used for testing and is tagged with a flag. Animals are allowed 60 s to find the platform. […] Behavioural data was analysed using a mixed model of factorial analysis of variance (ANOVA) with drug or genotype and training sessions as repeated measure factors.
The cognitive function of TgCRND8 mice was assessed using the spatial reference memory version of the Morris Water Maze using a three day trial paradigm (FIGS. 4-8).
Behavioural data was analysed using a mixed model of factorial analysis of variance (ANOVA) with drug and genotype as between subject variables and training sessions as within subject variable.
(§2) In these experiments, the dosage and oral administration of compounds, and the behavioral and neurochemical assays were the same as those employed in the above treatment experiments.

TgCRND8 mice [4] = details: mouse, in vivo
Text: Animals were sacrificed after one month of treatment and analysed for pathological outcomes.
as §2

[5] = 1 month treatment from 5 months of age
[6] = prevention, 6 months of age, vs untreated TgCRND8
[7] = prevention, four months of age, vs untreated TgCRND8

O[C@H]1[C@H](O)[C@@H](O)[C@H](O)[C@@H](O)[C@@H]1O [Scyllo-Inositol, scyllo-inositol]
Aβ load vs untreated (TgCRND8 mice [1]; [5]): significantly decreased the plaque burden and the Aβ load
Total Aβ (TgCRND8 mice [1]; 1 month treatment, 30 mg/mouse/day from 5 months, analyzed at 6 months of age): 15194 ± 579
Total Aβ (TgCRND8 mice [1]; 4 month prevention, 30 mg/mouse/day from 6 weeks of age): 5089 ± 173
Total Aβ (TgCRND8 mice [1]; 6 month prevention, 30 mg/mouse/day from 6 weeks of age): 15621 ± 151
reduction in Aβ40 levels (TgCRND8 mice [1]; [6]): 32%
reduction in Aβ42 (TgCRND8 mice [1]; [6]): 20%
decrease of total brain Aβ40 (TgCRND8 mice [1]; [7]): 62%
decrease of total brain Aβ42 (TgCRND8 mice [1]; [7]): 22%
astrogliosis/gliosis vs untreated (TgCRND8 mice [2]; 6 months of age): significantly decreased amyloid burden and gliosis
astrogliosis, percent brain area covered (GFAP) (TgCRND8 mice [2]; 6-months of age): 0.269±0.028%
microglial activation, % brain area (TgCRND8 mice [2]; 6 months): 0.20±0.008%
cognitive function, treated TgCRND8 mice vs non-Tg littermates (words) (TgCRND8 mice [3]; [5]): indistinguishable from non-Tg littermates on all days; also recorded: comparable to scyllo-inositol treated non-Tg littermates
cognitive function, treated TgCRND8 mice vs treated non-Tg littermates (TgCRND8 mice [3]; two months of treatment from 5 months of age): indistinguishable from scyllo-inositol treated non-Tg littermates; also recorded: remained indistinguishable from non-Tg littermates
effects on blood chemistry or organ function (TgCRND8 mice [4]): do not exhibit obvious deleterious effects on blood chemistry or organ function
